Assay results: PMC8018184, “Evaluation of the Pharmacophoric Role of the O–O Bond in Synthetic Antileishmanial Compounds: Comparison between 1,2-Dioxanes and Tetrahydropyrans” (Journal of Medicinal Chemistry, 2020)
Read-outs that look alike come from different tables or passages of the source.

How the values were obtained:
[1] = Cytotoxicity test on Vero cells (alamarBlue); assay type: cell-based, African green monkey
Procedure: (§1) Vero cells (kidney of African green monkey epithelial cell line) were cultured at 37 °C in the MEM liquid medium supplemented with 10% FBS (EuroClone SpA), 1% levoglutamine (EuroClone SpA), and 1% penicillin–streptomycin (EuroClone SpA). THP-1 cells (human leukemia monocytic cell line) were cultured at 37 °C in the RPMI 1640 (EuroClone SpA) liquid medium supplemented with 10% FBS (EuroClone SpA), 1% levoglutamine (EuroClone SpA), 1% penicillin–streptomycin, and mercaptoethanol (Gibco) 50 μM.
(§2) The cytotoxicity of the compounds was determined using mammalian kidney epithelial cells (Vero cell line) and human acute monocytic leukemia cell line (THP-1). Cells were seeded (10^5 cells mL^–1) on 96-well plates with the complete MEM medium and incubated with test compounds at 37 °C in a 5% CO2 incubator. After 72 h of incubation, 20 μL of the alamarBlue reagent was added to each well and incubated at 37 °C for 24 h. Reduction of resazurin to resorufin was evaluated after 24 h by absorbance measurement at the Multiskan ascent plate reader (Thermo Fisher Scientific Inc.,) at 550 and 630 nm. […] Each experiment was performed in duplicate.

[2] = system: intramacrophage amastigotes of L. donovani; test: Amastigote growth inhibition assay in infected THP-1 cells (Giemsa, infectivity index); assay type: cell-based, Leishmania donovani; details: for IC50: Leishmania donovani, intracellular amastigotes in THP-1, 72 h, read-out: IC50 against amastigotes of L. donovani
Procedure: To evaluate the efficacy of the compounds on the intracellular form of L. donovani, human acute monocytic leukemia cell line (THP-1) was infected with L. donovani promastigotes. Cells were harvested and seeded in a 96-well plate (10^5 cells mL^–1) in the complete RPMI 1640 medium, and PMA (0.1 μM, Cayman Chemical Company, Ann Arbor, Michigan, USA) was added for obtaining maturation and cell adherence. Cells were incubated at 37 °C in a 5% CO2 incubator. After 48 h, the medium was replaced with the fresh medium containing stationary-phase promastigotes that were then phagocyted by monocytic cells and transformed into intracellular amastigotes. After 24 h of incubation, newly synthesized compounds were added and the plates were incubated at 37 °C in a 5% CO2 incubator for 72 h. After incubation, wells were washed, fixed, and stained with Giemsa. Staining was detected using a Nikon Eclipse E200 light microscope (Nikon, Tokyo, Japan). The infectivity index (% of infected macrophages × average number of amastigotes per macrophage) was determined by counting at least 100 cells in duplicate cultures.

[3] = system: L. donovani promastigotes (MHOM/NP/02/BPK282/0cl4); test: Promastigote growth inhibition assay (alamarBlue); assay type: cell-based; details: Leishmania donovani, HOMEM with 10% FBS
[4] = system: L. donovani promastigotes; test: Promastigote growth inhibition in the presence of an iron chelator (DFO or DFP), isobologram; assay type: cell-based, Leishmania donovani; details: for Interaction with the iron chelator DFO (isobologram, ΣFIC): synergism <0.5, antagonism >4.0, else additivity
Procedure: At first, we determined IC50 and CC50 values of the iron chelator DFO (187 and >400 μM, respectively). Then, the effect of the iron chelator presence on the bioactivity of the two compounds was studied by coincubating 2a and 3a with DFO at different concentrations. The variation of IC50 of the compounds in relation to the different doses of DFO was determined by the alamarBlue assay (Table 3), and the isobole technique was employed to depict the interactions of 2a and 3a with DFO (Figure 6).
The isobole technique was used for depicting synergistic or antagonistic interaction between the iron chelator and the two compounds on the parasite growth (Figure 6). Combinations are expressed as the sum of the fractional inhibitory concentrations (ΣFIC), and FIC values are defined as synergism (<0.5), antagonism (>4.0), and additivity (no interaction). The strength of synergism (or antagonism) is indicated by the degree of deviation from the line of additivity.
[…]. Each compound was added using a concentration range including the IC50 of each compound. Each experiment was performed in duplicate. The viability of the parasites was determined by the alamarBlue assay. The fractional inhibitory concentration (FIC; FIC = IC50 of the drug in the combination/IC50 of the drug when tested alone) of each compound was calculated and plotted as an isobologram.

[5] = Cytotoxicity test on THP-1 cells (alamarBlue); assay type: cell-based; details: human, THP-1 cells (acute monocytic leukemia cell line); CSV supplement; read-out: CC50 against human acute monocytic leukemia cell line (THP-1)
Procedure: as §1, §2
Cytotoxicity in THP-1 cell line
We performed additional cytotoxicity tests employing THP-1 cell line. We also calculated the
corresponding selectivity indexes, as the ratio between CC50 of THP-1 cell line and IC50 on amastigotes
THP-1 cells than on VERO cells; thus showing a not significant variance of selectivity index.
Table S3. Inhibitory activity of tetrahydropyrans 3 and endoperoxides 2 against amastigotes of L.
donovani, cytotoxicity in human acute monocytic leukemia cell line (THP-1) and selectivity index (SI).
Tetrahydropyran IC50 CC50 Endoperoxide IC50 CC50
a (µM)b (µM)c a (µM)b (µM)c
a Compounds tested as racemates. b IC50 represents the concentration of a compound that causes 50% growth inhibition.
Results represent the mean (± standard deviation, SD) of three independent experiments performed in duplicate. c CC50
represents 50% cytotoxic concentration on THP-1 cells. d Selectivity index (SI) = CC50/IC50. […]

[6] = system: L. donovani promastigotes (MHOM/NP/02/BPK282/0cl4); test: Promastigote growth inhibition assay (alamarBlue); assay type: cell-based, Leishmania donovani; details: for IC50: Leishmania donovani; for Selectivity index (SI) = CC50/IC50: Vero CC50 / IC50 on promastigotes; for Activity against promastigotes under the bioassay conditions: 40 μM compound
Procedure: The bioactivity of the new tetrahydropyrans 3 was initially evaluated against the extracellular promastigote forms of L. donovani (MHOM/NP/02/BPK282/0cl4) as the reference strain, indicative of the leishmaniasis in the Old World. The results were expressed as IC50, i.e., the concentration of the product required to inhibit the parasite growth by 50%. When a compound could inhibit the promastigote growth, its cytotoxicity was also evaluated on Vero cells (Table 1) and on THP-1 cells (see the Supporting Information, Table S3) and the corresponding selectivity indexes (SIs) were calculated. The performance of each tetrahydropyran 3 was compared with that of the corresponding endoperoxide 2 (Table 1).
Promastigotes of a L. donovani reference strain (MHOM/NP/02/BPK282/0cl4) were maintained at 26 °C in a liquid custom-made medium, HOMEM Cat. no: 1140-082 (Gibco Thermo Fisher Scientific Inc., Waltham, USA), complete composition: S-MEM (Eagle) 1 × 1 liter pack, glucose (1–2 g), sodium bicarbonate (0.3 g), sodium pyruvate (0.11 g), p-aminobenzoic acid (1 mg), biotin (0.1 mg), HEPES (4.77–5.96 g), MEM amino acids (10 mL), MEM nonessential amino acids (10 mL), pH 7.5–7.6, supplemented with 20% fetal bovine serum (FBS, EuroClone SpA, Milan, Italy)[123] and 1% penicillin–streptomycin (EuroClone SpA).
To evaluate the efficacy of the compounds on the extracellular forms of L. donovani, promastigotes in their late log/stationary phase were seeded with the complete HOMEM medium at 10^6 cells mL^–1 in 96-well plates and incubated with tested compounds at a range concentration of 600–1.6 μM in a 26 °C incubator for 72 h. The antileishmanial drug amphotericin B was used as the positive control, and untreated promastigotes were the negative control. Each experiment was performed in duplicate. Stock solution of the compounds was 8 mM in DMSO. […] The alamarBlue assay includes a colorimetric growth indicator based on detection of metabolic activity. Specifically, the system incorporates an oxidation–reduction (REDOX) indicator that changes color in response to chemical reduction of the growth medium resulting from cell growth. The method monitors the reducing environment of proliferating cells; the cell-permeable resazurin is added (nonfluorescent form, blue color) and, upon entering cells, is reduced to resorufin (fluorescent form, red color) as a result of cellular metabolic activity. Evaluation was performed by adding 20 μL of alamarBlue and incubating at 26 °C for 24 h. The reducing environment was evaluated after 24 h by absorbance measurement at the Multiskan ascent plate reader (Thermo Fisher Scientific Inc.) at 550 and 630 nm.

[7] = system: promastigotes of Leishmania donovani strains; design: method as in earlier work; details: Figure 1; read-out: IC50 on promastigotes of L. donovani strains; cited from earlier work
[8] = chlorocebus sabaeus, Vero cells (kidney epithelial cell line), 72 h, alamarBlue, read-out: CC50 (50% cytotoxic concentration) on Vero cells
[9] = THP-1 CC50 / IC50 on amastigotes
[10] = Vero CC50 / IC50 on amastigotes
[11] = 72 h, alamarBlue, HOMEM 20% FBS, compounds as racemates, read-out: IC50 (concentration causing 50% growth inhibition) against promastigotes of L. donovani

## CO[C@]1(C)OCC(c2ccccc2)(c2ccccc2)C[C@@H]1CNCCCn1ccnc1 (racemic) [3b, 3-(1H-Imidazol-1-yl)-N-((2-methoxy-2-methyl-5,5-diphenyltetrahydro-2H-pyran-3-yl)methyl)propan-1-amine]
[1]; [8]
  CC50 at 72 h: 42.3 ± 3.2 µM
[2]
  IC50: 3.2 ± 0.9 µM
[2]; [9]
  Selectivity index (SI) = CC50/IC50: 15.6
[2]; [10]
  Selectivity index (SI) = CC50/IC50: 13.2
[3]
  IC50: 3.2 µM
[4]
  Interaction with the iron chelator DFO (isobologram, ΣFIC): additive effects
[5]
  CC50 at 72 h: 50 µM
[6]; [11]
  IC50: 5.8 ± 0.9 µM
[6]
  Selectivity index (SI) = CC50/IC50: 7.3

## CO[C@]1(C)OCC(C)(C)C[C@@H]1CNCCCn1ccnc1 (racemic) [3c, 3-(1H-Imidazol-1-yl)-N-((2-methoxy-2,5,5-trimethyltetrahydro-2H-pyran-3-yl)methyl)propan-1-amine]
[6]
  Activity against promastigotes under the bioassay conditions: inactive
[6]; [11]
  IC50: > 40 µM

## CO[C@]1(C)OCC(c2ccccc2)(c2ccccc2)C[C@@H]1COCc1cn(CCC[P+](c2ccccc2)(c2ccccc2)c2ccccc2)nn1.[Br-] (racemic) [3d, (3-(4-(((2-Methoxy-2-methyl-5,5-diphenyltetrahydro-2H-pyran-3-yl)methoxy)methyl)-1H-1,2,3-triazol-1-yl)propyl)triphenylphosphonium bromide]
[1]; [8]
  CC50 at 72 h: 92 ± 8.7 µM
[2]
  IC50: 2.8 ± 0.7 µM
[2]; [9]
  Selectivity index (SI) = CC50/IC50: 22.9
[2]; [10]
  Selectivity index (SI) = CC50/IC50: 32.8
[5]
  CC50 at 72 h: 64.1 µM
[6]; [11]
  IC50: 18 ± 3 µM
[6]
  Selectivity index (SI) = CC50/IC50: 5.1

## CCCCC1(CCCC)CO[C@@](C)(OC)[C@@H](CNCCCCNc2c3ccc(Cl)cc3nc3ccc(OC)cc23)C1 (racemic) [3e, N^1-(6-Chloro-2-methoxyacridin-9-yl)-N^4-((5,5-dibutyl-2-methoxy-2-methyltetrahydro-2H-pyran-3-yl)methyl)butane-1,4-diamine]
[1]; [8]
  CC50 at 72 h: 1.2 µM
[6]; [11]
  IC50: 0.9 µM
[6]
  Selectivity index (SI) = CC50/IC50: 1.3

## CO[C@]1(C)OOC(c2ccccc2)(c2ccccc2)C[C@@H]1CNCCCn1ccnc1 [2b]
[1]; [8]
  CC50 at 72 h: 49 ± 2.7 µM
[2]
  IC50: 5 ± 1 µM
[2]; [9]
  Selectivity index (SI) = CC50/IC50: 10.5
[2]; [10]
  Selectivity index (SI) = CC50/IC50: 9.8
[3]
  IC50: 1.2 µM
[4]; Leishmania donovani, no DFO, read-out: IC50 against promastigotes, absence of DFO (Table S4)
  IC50: 7.5 µM
[4]
  Interaction with the iron chelator DFO (isobologram, ΣFIC): additive effects
[5]
  CC50 at 72 h: 52.5 µM
[6]; [11]
  IC50: 6.3 ± 1.1 µM
[6]
  Selectivity index (SI) = CC50/IC50: 7.7

## CO[C@]1(C)OOC(C)(C)C[C@@H]1CNCCCn1ccnc1 [2c]
[6]
  Activity against promastigotes under the bioassay conditions: inactive
[6]; [11]
  IC50: > 40 µM

## Br.CO[C@]1(C)OOC(c2ccccc2)(c2ccccc2)C[C@@H]1COCc1cn(CCC[P+](c2ccccc2)(c2ccccc2)c2ccccc2)nn1 [2d]
[1]; [8]
  CC50 at 72 h: 238 ± 36.8 µM
[2]
  IC50: 16.5 ± 1.5 µM
[2]; [9]
  Selectivity index (SI) = CC50/IC50: 8.6
[2]; [10]
  Selectivity index (SI) = CC50/IC50: 14.4
[5]
  CC50 at 72 h: 142 µM
[6]; [11]
  IC50: 13.8 ± 2.2 µM
[6]
  Selectivity index (SI) = CC50/IC50: 17.3

## CCCCC1(CCCC)C[C@H](CNCCCCNc2c3ccc(Cl)cc3nc3ccc(OC)cc23)[C@](C)(OC)OO1 [2e, N^1-(6-Chloro-2-methoxyacridin-9-yl)-N^4-((6,6-dibutyl-3-methoxy-3-methyl-1,2-dioxan-4-yl)methyl)butane-1,4-diamine]
[1]; [8]
  CC50 at 72 h: 1.3 µM
[6]; [11]
  IC50: 0.5 µM
[6]
  Selectivity index (SI) = CC50/IC50: 2.6

## CCCCC1(CCCC)C[C@H](CNCCCCNc2ccc([N+](=O)[O-])c3nonc23)[C@](C)(OC)OO1 [2f, N^1-((6,6-Dibutyl-3-methoxy-3-methyl-1,2-dioxan-4-yl)methyl)-N^4-(7-nitrobenzo[c][1,2,5]oxadiazol-4-yl)butane-1,4-diamine]
[1]; [8]
  CC50 at 72 h: 12.1 µM
[6]; [11]
  IC50: 11.4 µM
[6]
  Selectivity index (SI) = CC50/IC50: 1.1

## C[C@H]1[C@H](OC(=O)CCC(=O)O)O[C@@H]2O[C@@]3(C)CC[C@H]4[C@H](C)CC[C@@H]1[C@@]24OO3 [Artesunate, reference compound]
[2]
  IC50: > 40 µM
[6]; [11]
  IC50: > 40 µM

## CC(=O)N(O)CCCCCNC(=O)CCC(=O)N(O)CCCCCNC(=O)CCC(=O)N(O)CCCCCN [DFO, desferrioxamine, reference compound]
[1]; cell line not given, read-out: CC50 of the iron chelator
  CC50 at 72 h: > 400 µM
[6]; 72 h, read-out: IC50 (concentration causing 50% growth inhibition) against promastigotes of L. donovani
  IC50: 187 µM

## Cc1c(O)c(=O)ccn1C [DFP, deferiprone, reference compound]
[1]; cell line not given, read-out: CC50 of the iron chelator DFP
  CC50 at 72 h: 143 µM
[6]; read-out: IC50 of the iron chelator DFP
  IC50: 219 µM

## CCCCCCCCCCCCCCCCOP(=O)([O-])OCC[N+](C)(C)C [Miltefosine]
[7]
  IC50: 1.9 to 68.1 µM
